Reference: patent US12612384B2, “Heterocyclic CYP4A inhibitor compounds and compositions thereof” (MBD CO., LTD., priority 2021, dated 2026)
Where two headings read alike, the source gives them in different places.

Target: T1, CYP4A (Homo sapiens, UniProt Q02928)
T1 construct: purchased; host or cells: bacterial membranes ('bactosome')
T1 sequence (Q02928 5-519): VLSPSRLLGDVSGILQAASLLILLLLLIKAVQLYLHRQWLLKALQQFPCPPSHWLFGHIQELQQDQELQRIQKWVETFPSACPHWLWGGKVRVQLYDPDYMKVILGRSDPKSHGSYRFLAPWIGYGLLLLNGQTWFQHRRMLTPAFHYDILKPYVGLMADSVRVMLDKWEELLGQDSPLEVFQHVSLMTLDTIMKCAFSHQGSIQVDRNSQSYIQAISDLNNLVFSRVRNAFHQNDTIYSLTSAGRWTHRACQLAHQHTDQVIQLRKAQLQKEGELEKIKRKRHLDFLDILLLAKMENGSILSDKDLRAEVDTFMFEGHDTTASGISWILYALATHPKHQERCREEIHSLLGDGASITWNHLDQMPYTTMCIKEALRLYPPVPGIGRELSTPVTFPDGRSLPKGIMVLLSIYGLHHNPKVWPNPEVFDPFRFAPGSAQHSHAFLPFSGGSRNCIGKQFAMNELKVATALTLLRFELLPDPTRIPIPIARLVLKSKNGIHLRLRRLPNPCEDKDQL
Assay: CYP4A enzyme assay (luminescence, Luciferin-ME)
Type: biochemical
Settings: Compound concentration 5 μM
In short: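 Compounds (5 μM) were preincubated 15 min at room temperature with CYP4A bactosomes in 100 mM KPO4, 0.1% BSA, 1 mM DTT. Reaction ran 30 min at room temperature after adding 5 mM Luciferin-ME and NADPH regeneration system. Luminescence after 15 min with detection reagent; inhibition judged by comparing well signals.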

[1] = Greater than 90%, read-out: % Inhibition Greater than 90%
[2] = 70%-90%, read-out: % Inhibition 70%-90%

inhibition at 5 µM [1] | inhibition at 5 µM [2] | Structure (SMILES)
> 90% | – | O=C(c1ncn[nH]1)N1CC[C@H](C(=O)N2CCN(c3ccnc4cc(F)ccc34)CC2)C1 [Example 161, (S)-(1-(4H-1,2,4-triazole-3-carbonyl)pyrrolidin-3-yl)(4-(7-fluoroquinolin-4-yl)piperazin-1-yl)methanone]
> 90% | – | O=C(c1nn[nH]n1)N1CC[C@H](C(=O)N2CCN(c3ccnc4cc(F)ccc34)CC2)C1 [Example 162, (S)-(1-(2H-tetrazole-5-carbonyl)pyrrolidin-3-yl)(4-(7-fluoroquinolin-4-yl)piperazin-1-yl)methanone]
– | 70 to 90% | Cc1ccc2c(N3CCN(C(=O)[C@H]4CCN(S(=O)(=O)c5ncn[nH]5)C4)CC3)ccnc2c1 [Example 163, (S)-(1-((1H-1,2,4-triazol-5-yl)sulfonyl)pyrrolidin-3-yl)(4-(7-methylquinolin-4-yl)piperazin-1-yl)methanone]
> 90% | – | O=C([C@H]1CCN(S(=O)(=O)c2ncn[nH]2)C1)N1CCN(c2ccnc3cc(O)ccc23)CC1 [Example 164, (S)-(1-((1H-1,2,4-triazol-5-yl)sulfonyl)pyrrolidin-3-yl)(4-(7-hydroxyquinolin-4-yl)piperazin-1-yl)methanone]
> 90% | – | COc1ccc2c(N3CCN(C(=O)[C@H]4CCN(S(=O)(=O)c5ncn[nH]5)C4)CC3)ccnc2c1 [Example 165, (S)-(1-((1H-1,2,4-triazol-5-yl)sulfonyl)pyrrolidin-3-yl)(4-(7-methoxyquinolin-4-yl)piperazin-1-yl)methanone]
> 90% | – | Cc1nc(S(=O)(=O)N2CC[C@H](C(=O)N3CCN(c4ccnc5cc(F)ccc45)CC3)C2)n[nH]1 [Example 166, (S)-(4-(7-fluoroquinolin-4-yl)piperazin-1-yl)(1-((5-methyl-1H-1,2,4-triazol-3-yl)sulfonyl)pyrrolidin-3-yl)methanone]
– | 70 to 90% | O=C([C@H]1CCN(S(=O)(=O)c2ncn[nH]2)C1)N1CCN(c2cc(C(F)(F)F)nc3ccccc23)CC1 [Example 167, (S)-(1-((1H-1,2,4-triazol-5-yl)sulfonyl)pyrrolidin-3-yl)(4-(2-(trifluoromethyl)quinolin-4-yl)piperazin-1-yl)methanone]
> 90% | – | O=C([C@H]1CCN(S(=O)(=O)c2ncn[nH]2)C1)N1CCN(c2ccnc3cc(F)c(F)cc23)CC1 [Example 168, (S)-(1-((1H-1,2,4-triazol-5-yl)sulfonyl)pyrrolidin-3-yl)(4-(6,7-difluoroquinolin-4-yl)piperazin-1-yl)methanone]
> 90% | – | O=C([C@H]1CCN(S(=O)(=O)c2ncc[nH]2)C1)N1CCN(c2ccnc3cc(F)c(F)cc23)CC1 [Example 169, (S)-(1-((1H-imidazol-2-yl)sulfonyl)pyrrolidin-3-yl)(4-(6,7-difluoroquinolin-4-yl)piperazin-1-yl)methanone]
